Molecules are shown by their SMILES.

This experiment deals with TNFα trimer (Homo sapiens, UniProt P01375). The experiment in a line: TNFα FP Competitive Binding Assay. The settings on record: fluorescence polarization competition; 20 nM TNFα trimer, 1 nM OregonGreen488 probe; read-out: TNF IC50 (TNFα FP binding assay IC50). An outline of the steps:
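Compounds, 12-point 1:3 dilutions topping at 100 μM (2.0% DMSO) or 338 μM (3.4% DMSO) final, compete with 1 nM fluorescent probe for 20 nM TNFα trimer in HEPES/NaCl/EDTA/Triton buffer. After 18-24 h incubation at 37 °C plus 1 h rt equilibration, background-subtracted polarization is read and fitted with variable slope.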

TNFα trimer, sequence (P01375 77-233 limits assumed): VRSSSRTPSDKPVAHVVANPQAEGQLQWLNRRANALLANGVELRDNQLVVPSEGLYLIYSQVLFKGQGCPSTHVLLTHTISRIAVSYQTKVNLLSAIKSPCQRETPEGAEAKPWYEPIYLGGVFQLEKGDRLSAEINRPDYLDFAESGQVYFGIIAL

A word on the IC50: it is the concentration at which inhibition is half-maximal. `O=C(O)CC1CCCN(c2ncc(-c3ccc4nc5n(c4c3)[C@@H](c3ccccc3)COC5)cn2)C1` (stereo partly drawn) [G.3]: the IC50 is 1000 to 10000 nM.

As to `OCC1CCCN(c2ncc(-c3ccc4nc5n(c4c3)[C@@H](c3ccccc3)COC5)cn2)C1` (stereo partly drawn) [G.4], the IC50 was under 1000 nM.

For `OCCCN1CCN(c2ncc(-c3ccc4nc5n(c4c3)[C@@H](c3ccccc3)COC5)cn2)CC1` [G.5], the IC50 lay within 1000 to 10000 nM.

Consider `O=C1NCNC12CCN(c1ncc(-c3ccc4nc5n(c4c3)[C@@H](c3ccccc3)COC5)cn1)CC2` [G.6], for which the IC50 was 1000 to 10000 nM.

Take `CC(O)C1CCN(c2ncc(-c3ccc4nc5n(c4c3)[C@@H](c3ccccc3)COC5)cn2)CC1` (stereo partly drawn) [G.7]: the IC50 was 1000 to 10000 nM.

In the case of `c1ccc([C@H]2COCc3nc4ccc(-c5cnc(N6CCC7(CC6)COC7)nc5)cc4n32)cc1` [G.8], the IC50 is under 1000 nM.

As to `O=C1CN(c2ncc(-c3ccc4nc5n(c4c3)[C@@H](c3ccccc3)COC5)cn2)CCCN1` [G.9], the IC50 lay in the range of 1000 to 10000 nM.

As for `O=C(O)CCC1CCN(c2ncc(-c3ccc4nc5n(c4c3)[C@@H](c3ccccc3)COC5)cn2)CC1` [G.10], the IC50 is 1000 to 10000 nM.

As to `OC1CCCN(c2ncc(-c3ccc4nc5n(c4c3)[C@@H](c3ccccc3)COC5)cn2)CC1` (stereo partly drawn) [G.11], the IC50 was under 1000 nM.

Regarding `NS(=O)(=O)N1CCN(c2ncc(-c3ccc4nc5n(c4c3)[C@@H](c3ccccc3)COC5)cn2)CC1` [G.12], the IC50 is under 1000 nM.

On to `CN1CCC(N2CCN(c3ncc(-c4ccc5nc6n(c5c4)[C@@H](c4ccccc4)COC6)cn3)CC2)CC1` [G.13], for which the IC50 lay in the range of 1000 to 10000 nM.

On to `OCC1(F)CCN(c2ncc(-c3ccc4nc5n(c4c3)[C@@H](c3ccccc3)COC5)cn2)CC1` [G.14], for which the IC50 was under 1000 nM.

Take `FC(F)(F)C1CN(c2ncc(-c3ccc4nc5n(c4c3)[C@@H](c3ccccc3)COC5)cn2)CCO1` (stereo partly drawn) [G.15]: the IC50 is 1000 to 10000 nM.

For `c1ccc([C@H]2COCc3nc4ccc(-c5cnc(N6CCC7(COC7)C6)nc5)cc4n32)cc1` [G.16], the IC50 was 1000 to 10000 nM.

Regarding `c1ccc([C@H]2COCc3nc4ccc(-c5cnc(N6CC(N7CCOCC7)C6)nc5)cc4n32)cc1` [G.17], the IC50 lay in the range of 10000 to 100000 nM.

For the compound `CS(=O)(=O)[C@@H]1CCN(c2ncc(-c3ccc4nc5n(c4c3)[C@@H](c3ccccc3)COC5)cn2)C1` [G.18], the IC50 fell in the range of 1000 to 10000 nM.

For `CS(=O)(=O)NC1CCN(c2ncc(-c3ccc4nc5n(c4c3)[C@@H](c3ccccc3)COC5)cn2)CC1` [G.19], the IC50 was 1000 to 10000 nM.

Turning to `OCCC1(O)CCN(c2ncc(-c3ccc4nc5n(c4c3)[C@@H](c3ccccc3)COC5)cn2)CC1` [G.20], the IC50 is under 1000 nM.

With `CN1CCC(C2CCN(c3ncc(-c4ccc5nc6n(c5c4)[C@@H](c4ccccc4)COC6)cn3)CC2)CC1` [G.21], the IC50 was 1000 to 10000 nM.

`CC1(O)CCN(c2ncc(-c3ccc4nc5n(c4c3)[C@@H](c3ccccc3)COC5)cn2)CC1` [G.22]: the IC50 is under 1000 nM.

For `CC1CN(c2ncc(-c3ccc4nc5n(c4c3)[C@@H](c3ccccc3)COC5)cn2)CC(C)O1` (stereo partly drawn) [G.23], the IC50 fell in the range of 1000 to 10000 nM.

`CS(=O)(=O)N1CCN(c2ncc(-c3ccc4nc5n(c4c3)[C@@H](c3ccccc3)COC5)cn2)CC1` [G.24]: the IC50 was under 1000 nM.

Turning to `O[C@H]1CN(c2ncc(-c3ccc4nc5n(c4c3)[C@@H](c3ccccc3)COC5)cn2)C[C@@H]1O` [G.25], the IC50 was in the range of 10000 to 100000 nM.

Regarding `O[C@@H]1CN(c2ncc(-c3ccc4nc5n(c4c3)[C@@H](c3ccccc3)COC5)cn2)C[C@H]1O` [G.26], the IC50 lay in the range of 10000 to 100000 nM.

`O=C1OCC2CN(c3ncc(-c4ccc5nc6n(c5c4)[C@@H](c4ccccc4)COC6)cn3)CCN12` (stereo partly drawn) [G.27]: the IC50 lay in the range of 1000 to 10000 nM.

For `c1ccc([C@H]2COCc3nc4ccc(-c5cnc(N6CCn7cnnc7C6)nc5)cc4n32)cc1` [G.28], the IC50 was under 1000 nM.

Take `CS(=O)(=O)C1CCN(c2ncc(-c3ccc4nc5n(c4c3)[C@@H](c3ccccc3)COC5)cn2)C1` (stereo partly drawn) [G.29]: the IC50 was in the range of 1000 to 10000 nM.

Regarding `O=C1CN(c2ncc(-c3ccc4nc5n(c4c3)[C@@H](c3ccccc3)COC5)cn2)CCN1` [G.30], the IC50 is under 1000 nM.

For `OCCC1(O)CCN(c2ncc(-c3ccc4nc5n(c4c3)[C@@H](c3ccccc3)COC5)cn2)C1` (stereo partly drawn) [G.31], the IC50 was in the range of 1000 to 10000 nM.

Take `c1ccc([C@H]2COCc3nc4ccc(-c5cnc(N6CCCOCC6)nc5)cc4n32)cc1` [G.32]: the IC50 was under 1000 nM.

`CS(=O)(=O)C1(CO)CCN(c2ncc(-c3ccc4nc5n(c4c3)[C@@H](c3ccccc3)COC5)cn2)CC1` [G.33]: the IC50 was 1000 to 10000 nM.

As to `OC1CC2(CCN(c3ncc(-c4ccc5nc6n(c5c4)[C@@H](c4ccccc4)COC6)cn3)C2)C1` (stereo partly drawn) [G.34], the IC50 was under 1000 nM.

Turning to `OCC1CN(c2ncc(-c3ccc4nc5n(c4c3)[C@@H](c3ccccc3)COC5)cn2)CCO1` (stereo partly drawn) [G.35], the IC50 was under 1000 nM.

Turning to `O=C(O)C1CN(c2ncc(-c3ccc4nc5n(c4c3)C(c3ccccc3)CCC5)cn2)C1` (stereo not drawn) [H.1], the IC50 was 10000 to 100000 nM.

Regarding `O=C(O)C1CCN(c2ncc(-c3ccc4nc5n(c4c3)C(c3ccccc3)CCC5)cn2)CC1` (stereo not drawn) [H.2], the IC50 was 1000 to 10000 nM.

Turning to `O=C1CN(c2ncc(-c3ccc4nc5n(c4c3)C(c3ccccc3)CCC5)cn2)CCN1` (stereo not drawn) [H.3], the concentration for half-maximal inhibition (IC50) lay within 1000 to 10000 nM.

`OC1(c2cccc(Cl)c2)CCCc2nc3ccc(-c4cnc(N5CCOCC5)nc4)cn3c21` (stereo not drawn) [I.1, 9-(3-Chlorophenyl)-2-(2-morpholinopyrimidin-5-yl)-6,7,8,9-tetrahydrobenzo[4,5]imidazo[1,2-a]pyridin-9-ol]: the IC50 lay within 1000 to 10000 nM.

`OC1(c2ccccc2)CCCc2nc3ccc(-c4cnc(N5CCOCC5)nc4)cn3c21` (stereo not drawn) [I.2]: the IC50 is 1000 to 10000 nM.

For the compound `Cc1cccc(C2(O)CCCc3nc4ccc(-c5cnc(N6CCOCC6)nc5)cn4c32)c1` (stereo not drawn) [I.3], the IC50 is 1000 to 10000 nM.

Turning to `OC1(c2cccc(F)c2)CCCc2nc3ccc(-c4cnc(N5CCOCC5)nc4)cn3c21` (stereo not drawn) [I.4], the IC50 lay within 1000 to 10000 nM.

As for `Cc1c(F)cccc1C1(O)CCCc2nc3ccc(-c4cnc(N5CCOCC5)nc4)cn3c21` (stereo not drawn) [I.5], the IC50 lay in the range of 1000 to 10000 nM.

Take `OC1(c2ccc(F)cc2)CCCc2nc3ccc(-c4cnc(N5CCOCC5)nc4)cn3c21` (stereo not drawn) [I.6]: the IC50 lay within 1000 to 10000 nM.

For `OC1(c2cc(F)cc(Cl)c2)CCCc2nc3ccc(-c4cnc(N5CCOCC5)nc4)cn3c21` (stereo not drawn) [I.7], the IC50 was 1000 to 10000 nM.

As for `Cc1ccc(C2(O)CCCc3nc4ccc(-c5cnc(N6CCOCC6)nc5)cn4c32)cc1` (stereo not drawn) [I.8], the IC50 is 1000 to 10000 nM.

On to `OC1(c2cccc(F)c2)CCCCc2nc3ccc(-c4cnc(N5CCOCC5)nc4)cn3c21` (stereo not drawn) [J.1], for which the IC50 was under 1000 nM.

In the case of `OC1(c2cccc(Cl)c2)CCCCc2nc3ccc(-c4cnc(N5CCOCC5)nc4)cn3c21` (stereo not drawn) [J.2], the 50% inhibitory concentration (IC50) lay in the range of 1000 to 10000 nM.

For `Cc1cccc(C2(O)CCCCc3nc4ccc(-c5cnc(N6CCOCC6)nc5)cn4c32)c1` (stereo not drawn) [J.3], the IC50 was 1000 to 10000 nM.

For the compound `OC1(c2ccc(F)cc2)CCCCc2nc3ccc(-c4cnc(N5CCOCC5)nc4)cn3c21` (stereo not drawn) [J.4], the IC50 lay within 1000 to 10000 nM.

Turning to `OC1(c2cc(F)cc(Cl)c2)CCCCc2nc3ccc(-c4cnc(N5CCOCC5)nc4)cn3c21` (stereo not drawn) [J.5], the IC50 lay within 1000 to 10000 nM.

Consider `COc1ccc(C2(O)CCCCc3nc4ccc(-c5cnc(N6CCOCC6)nc5)cn4c32)cc1` (stereo not drawn) [J.6], for which the IC50 lay in the range of 1000 to 10000 nM.

For `Cc1ccc(C2(O)CCCCc3nc4ccc(-c5cnc(N6CCOCC6)nc5)cn4c32)cc1` (stereo not drawn) [J.7], the IC50 lay within 1000 to 10000 nM.

In the case of `OC1(c2ccc(Cl)cc2)CCCCc2nc3ccc(-c4cnc(N5CCOCC5)nc4)cn3c21` (stereo not drawn) [J.8], the half-maximal inhibitory concentration (IC50) was in the range of 1000 to 10000 nM.

For `COc1cc(OC)cc(C2(O)CCCCc3nc4ccc(-c5cnc(N6CCOCC6)nc5)cn4c32)c1` (stereo not drawn) [J.9], the IC50 was 10000 to 100000 nM.

For `COc1cccc(C2(O)CCCCc3nc4ccc(-c5cnc(N6CCOCC6)nc5)cn4c32)c1` (stereo not drawn) [J.10], the IC50 fell in the range of 10000 to 100000 nM.

For `Clc1cccc(C2CCCc3nc4ccc(-c5cnc(N6CCOCC6)nc5)cn4c32)c1` (stereo not drawn) [K.1], the IC50 was under 1000 nM.

Turning to `CC(C)(O)c1ncc(-c2ccc3nc4n(c3n2)C(c2ccccc2)CC4)cn1` (stereo not drawn) [L.1], the IC50 was under 1000 nM.

As to `O=C1CN(c2ncc(-c3ccc4nc5n(c4n3)C(c3ccccc3)CC5)cn2)CCN1` (stereo not drawn) [L.2], the IC50 is under 1000 nM.

In the case of `OC1CCN(c2ncc(-c3ccc4nc5n(c4n3)C(c3ccccc3)CC5)cn2)CC1` (stereo not drawn) [L.3, 1-(5-(8-phenyl-7,8-dihydro-6H-pyrrolo[2′,1′:2,3]imidazo[4,5-b]pyridin-2-yl)pyrimidin-2-yl)piperidin-4-ol], the concentration for half-maximal inhibition (IC50) was under 1000 nM.

In the case of `O=C1NCC2CN(c3ncc(-c4ccc5nc6n(c5n4)C(c4ccccc4)CC6)cn3)CCN12` (stereo not drawn) [L.4], the IC50 was under 1000 nM.

For `Fc1cccc(C2CCc3nc4ccc(-c5cnc(N6CCOCC6)nc5)nc4n32)c1` (stereo not drawn) [M.1], the IC50 is under 1000 nM.

On to `CC(C)(O)c1ncc(-c2ccc3nc4n(c3n2)C(c2cccc(F)c2)CC4)cn1` (stereo not drawn) [M.2], for which the IC50 is under 1000 nM.

In the case of `O=C1CN(c2ncc(-c3ccc4nc5n(c4n3)C(c3cccc(F)c3)CC5)cn2)CCN1` (stereo not drawn) [M.3], the IC50 is under 1000 nM.

For the compound `OC1CCN(c2ncc(-c3ccc4nc5n(c4n3)C(c3cccc(F)c3)CC5)cn2)CC1` (stereo not drawn) [M.4, 1-(5-(8-(3-fluorophenyl)-7,8-dihydro-6H-pyrrolo[2′,1′:2,3]imidazo[4,5-b]pyridin-2-yl)pyrimidin-2-yl)piperidin-4-ol], the IC50 is under 1000 nM.

Regarding `O=C1NCC2CN(c3ncc(-c4ccc5nc6n(c5n4)C(c4cccc(F)c4)CC6)cn3)CCN12` (stereo not drawn) [M.5], the half-inhibitory concentration (IC50) was under 1000 nM.

`Cc1ccc(C)c(C2CCc3nc4ccc(-c5cnc(N6CCOCC6)nc5)nc4n32)c1` (stereo not drawn) [N.1]: the IC50 is under 1000 nM.

Consider `Cc1ccc(C)c(C2CCc3nc4ccc(-c5cnc(N6CCNC(=O)C6)nc5)nc4n32)c1` (stereo not drawn) [N.2], for which the IC50 is under 1000 nM.

For the compound `Cc1ccc(C)c(C2CCc3nc4ccc(-c5cnc(N6CCC(O)CC6)nc5)nc4n32)c1` (stereo not drawn) [N.3], the IC50 is under 1000 nM.

Consider `Cc1ccc(C)c(C2CCc3nc4ccc(-c5cnc(N6CCN7C(=O)NCC7C6)nc5)nc4n32)c1` (stereo not drawn) [N.4], for which the half-maximal inhibitory concentration (IC50) was under 1000 nM.

Consider `c1ccc(C2CCCc3nc4ccc(-c5cnc(N6CCOCC6)nc5)nc4n32)cc1` (stereo not drawn) [O.1], for which the IC50 is under 1000 nM.
